In paper PMC9000710, “Synthesis and Hemostatic Activity of New Amide Derivatives” (Molecules, 2022):
Counter-ions that a name gives are not always drawn.

Key:
[1] = Hemolysis assay (stability of erythrocytes); assay type: cell-based, human; conditions: male, human, heparinized whole blood diluted with saline (erythrocytes); for hemolysis at 45 min, 5 mg/L / hemolysis at 120 min, 5 mg/L / hemolysis at 240 min, 5 mg/L: c 5 mg/L; for hemolysis at 45 min, 500 mg/L / hemolysis at 120 min, 500 mg/L / hemolysis at 240 min, 500 mg/L: c 500 mg/L
Protocol: Heparinized whole blood was used from a healthy volunteer. The whole blood (10 mL) was diluted with saline solution (90 mL). For each UV-Vis measurement, 2.5 mL of diluted blood was used. For each blood sample, 1 mL of a saline solution containing hydrochlorides 1–8 at concentrations of 5, 50, and 500 mg/L was added. As a control were used blood samples with the addition of 1% solution of DMSO in saline and 1% solution of SDS in saline. In all cases, the measurements were repeated twice for each concentration. […] The cells were centrifuged, and the absorbance of the supernatant, which contained plasma and lysed erythrocytes, was measured at 540 nm. The percentage of lysis was calculated from a standard curve of lysed erythrocytes treated with SDS [52].

[2] = tested on: human blood plasma; assay: Prothrombin time (PT) clotting assay; assay type: biochemical
Protocol: (§1) Human blood plasma was isolated from fresh buffy coats (collected onto the citrate-dextrose solution—ACD) purchased from the Regional Centre of Blood Donation and Blood Treatment in Lodz, Poland. In the isolation procedure, the buffy coats (60 mL units) were divided into volumes of 10 mL and centrifuged (4000 rpm/15 min) in 15 mL tubes. Next, 1 mL solutions of each amide 1–8 were prepared in distilled water at concentrations of 10, 25, and 50 mg/L. Then, 450 μL of plasma and 50 μL of each amide at the tested concentrations were placed into 1.5 mL vials. The vials were vortexed (Vortex Biosan V-1 plus), incubated at 37 °C on a thermoblock (Dry Block Thermostat Biosan TDB-120), and analyzed using a Kselmed K-3002 OPTIC coagulometer (Grudziądz, Poland), based on the manufacturer’s protocols (described below). The control sample was native blood plasma, untreated with any of the examined substances.
(§2) Fifty microliters of control plasma and plasma samples treated with the amides were transferred to measuring cuvettes and placed in the thermoblock module (37 °C) of a coagulometer (KSELMED, K-3002 Optic). Then, 100 μL of Dia-PT reagent (DIAGON Kft. Hungary; cat. no. 81100) was added. Measurements were started immediately.

[3] = tested on: human blood plasma; assay: Activated partial thromboplastin time (aPTT) clotting assay; assay type: biochemical
Protocol: as §1
as §2, with “of the” for “of a”, “Then, 50” for “Then, 100”, “of Dia-APTT” for “of Dia-PT”, “no. 72048) was added. The mixture was incubated for 180 s at 37 °C. Finally, 50 μL of reagent Dia-CaCl2 (DIAGON Kft. Hungary; cat. no. 41192)” for “no. 81100)”

[4] = tested on: human blood plasma; assay: Thrombin time (TT) clotting assay; assay type: biochemical
Protocol: as §1
Both 100 μL of control plasma and plasma samples treated with the amides were transferred to measuring cuvettes, which were placed in the thermoblock module (37 °C) of the coagulometer (KSELMED K-3002 Optic). Then, 100 μL of thrombin solution (4.5 U/mL, in 0.9% NaCl; Biomed, Lublin, Poland) was added to the cuvette. Measurements were started immediately.

[5] = tested on: human blood plasma; assay: Clot formation and fibrinolysis (CFF) assay; assay type: biochemical; conditions: for Amax (maximum of fibrin clot absorbance at 360 nm) / VmaxC (of Fibrin Polymerization) / VmaxF (of Fibrin Clot Lysis): control plasma assumed as 100%, mean ± SD, n = 5–7; for decrease of VmaxF: concentration not given
Excerpt: The CFF assay enables analysis of both the blood plasma coagulation process and fibrinolysis efficiency. The thrombin enzyme in the reagent mixture initiates blood plasma fibrinogen polymerization, leading to an increase in absorbance in the sample until the maximal absorbance (Amax) is attained. The fibrinolytic activity of blood plasma is induced by the tissue-type plasminogen activator (t-PA). The activation of fibrinolysis in the tested samples leads to fibrin clot degradation and decreases the absorbance to the baseline.
Figure 11 An exemplary curve of blood plasma coagulation and clot lysis recorded during the clot formation and fibrinolysis (CFF) assay. The first step in the CFF test involves activation of the blood plasma coagulation cascade and fibrin clot formation (1). It is characterized by the maximal velocity of the fibrin polymerization parameter (VmaxC). The maximal absorbance (Amax) peak corresponds to the fibrin stabilization phase and is an indicator of fibrin clot thickness (2). The third step of the CFF assay covers the activation of fibrinolytic mechanisms and fibrin clot degradation (3) and is described by the maximal velocity of clot lysis (VmaxF).
Thrombin was purchased from BioMed (Lublin, Poland). A tissue-type plasminogen activator (Actilyse®) was purchased from Boehringer Ingelheim, Ingelheim am Rhein, Germany. Kinetic measurements were executed using a SpectrostarNano microplate spectrophotometer (BMG LabTech, Ortenberg, Germany).
Measurements were performed using a kinetic model, as described in our previous work. Briefly, blood plasma was preincubated with the examined substances (at final concentrations of 10, 25, and 50 mg/L) for 15 min at 37 °C. Then, 100 μL of blood plasma was added to microtiter plate wells, which was followed by 200 μL of the reagent mixture (0.75 U/mL thrombin, 225 ng/mL t-PA and 7.5 mM CaCl2) suspended in tris-buffered saline (0.05 M TBS, 0.9% NaCl; pH 7.4). Measurements of absorbance changes were started immediately and continued for 60 min at 37 °C, λ = 360 nm. The following parameters were used to determine the effects of the examined substances on the coagulation and fibrinolytic properties of the blood plasma: the maximal velocity of fibrinogen polymerization (VmaxC), which is an indicator of the plasma coagulation efficiency; the maximal absorbance (Amax), which is an indicator of the fibrin clot stabilization and its thickness; the maximal velocity of clot lysis (VmaxF), which is an indicator of blood plasma fibrinolytic activity.

SMILES	hemolysis at 45 min, 5 mg/L ([1]; 45 min)	hemolysis at 120 min, 5 mg/L ([1]; 120 min)	hemolysis at 240 min, 5 mg/L ([1]; 240 min)	hemolysis at 45 min, 50 mg/L ([1]; c 50 mg/L, 45 min)	hemolysis at 120 min, 50 mg/L ([1]; c 50 mg/L, 120 min)	hemolysis at 240 min, 50 mg/L ([1]; c 50 mg/L, 240 min)	hemolysis at 45 min, 500 mg/L ([1]; 45 min)	PT Time [% of Control] ([2]; c 10 mg/L)	PT Time [% of Control] ([2]; c 25 mg/L)	PT Time [% of Control] ([2]; c 50 mg/L)	aPTT Time [% of Control] ([3]; c 10 mg/L)	aPTT Time [% of Control] ([3]; c 25 mg/L)	aPTT Time [% of Control] ([3]; c 50 mg/L)	TT Time [% of Control] ([4]; c 10 mg/L)	TT Time [% of Control] ([4]; c 25 mg/L)	TT Time [% of Control] ([4]; c 50 mg/L)	Amax (maximum of fibrin clot absorbance at 360 nm) ([5]; 10 mg/L)	VmaxC (of Fibrin Polymerization) ([5]; 10 mg/L)	VmaxF (of Fibrin Clot Lysis) ([5]; 10 mg/L)	Amax (maximum of fibrin clot absorbance at 360 nm) ([5]; 25 mg/L)	other results
NCCCCCC(=O)NCC1CCC(C(=O)O)CC1 (stereo not drawn) (as salt: hydrochloride) [Amide 3, 6-((((1s,4s)-4-Carboxycyclohexyl)methyl)amino)-6-oxohexan-1-aminium chloride]																					melting point: 195 to 197 °C
NCCCCCC(=O)NCC1CCC(C(=O)O)CC1 (stereo not drawn) [Amide 3, 6-((((1s,4s)-4-Carboxycyclohexyl)methyl)amino)-6-oxohexan-1-aminium chloride]	0.44%	0.74%	0.41%	0%	0%	0.26%	0.47%	94.9 ± 2.2 % of Control	95.2 ± 3.0 % of Control	97.0 ± 3.6 % of Control	94.8 ± 4.5 % of Control	94.7 ± 4.1 % of Control	96.3 ± 2.8 % of Control	100.1 ± 2.6 % of Control	100.8 ± 6.9 % of Control	97.2 ± 4.3 % of Control	107.21 ± 6.90 %	105.61 ± 7.06%	93.23 ± 16.83%	104.49 ± 9.80%	hemolysis at 120 min, 500 mg/L ([1]; 120 min): 0.65%; hemolysis at 240 min, 500 mg/L ([1]; 240 min): 0.23%; prothrombin time, effect versus control in words ([2]; two lower concentrations (10 and 25 mg/L)): decreased; aPTT, effect versus control in words ([3]; tested at 10, 25, 50 mg/L): significantly decreased; VmaxC (of Fibrin Polymerization) ([5]; 25 mg/L): 103.88 ± 9.73%; VmaxF (of Fibrin Clot Lysis) ([5]; 25 mg/L): 97.05 ± 24.39%; Amax (maximum of fibrin clot absorbance at 360 nm) ([5]; 50 mg/L): 112.98 ± 8.40 %; VmaxC (of Fibrin Polymerization) ([5]; 50 mg/L): 109.78 ± 6.46 %; VmaxF (of Fibrin Clot Lysis) ([5]; 50 mg/L): 102.82 ± 20.01%
Cl.NCCCCCC(=O)NCCCCCC(=O)O [Amide 4, 6-(6-Aminohexanamido)hexanoic acid hydrochloride]	1%	0.74%	0.27%	0%	0.71%	0.32%	0.38%	97.3 ± 4.2 % of Control	95.4 ± 2.3 % of Control	93.7 ± 3.0 % of Control	98.1 ± 5.2 % of Control	97.4 ± 5.4 % of Control	99.9 ± 6.0 % of Control	96.3 ± 6.9 % of Control	95.5 ± 8.8 % of Control	97.6 ± 5.0 % of Control	115.37 ± 8.73 %	107.93 ± 7.23 %	81.36 ± 21.07 %	114.07 ± 15.71%	hemolysis at 120 min, 500 mg/L ([1]; 120 min): 0.21%; hemolysis at 240 min, 500 mg/L ([1]; 240 min): 0.22%; prothrombin time, effect versus control in words ([2]; two higher concentrations (25 and 50 mg/L)): significantly decreased; VmaxC (of Fibrin Polymerization) ([5]; 25 mg/L): 105.85 ± 7.85%; VmaxF (of Fibrin Clot Lysis) ([5]; 25 mg/L): 70.35 ± 16.30 %; Amax (maximum of fibrin clot absorbance at 360 nm) ([5]; 50 mg/L): 109.29 ± 9.02 %; VmaxC (of Fibrin Polymerization) ([5]; 50 mg/L): 105.89 ± 5.64%; VmaxF (of Fibrin Clot Lysis) ([5]; 50 mg/L): 55.95 ± 10.51 %; decrease of VmaxF [5]: 30–40%
NCC(=O)NCC1CCC(C(=O)O)CC1 (stereo not drawn) [Amide 7, 2-((((1s,4s)-4-Carboxycyclohexyl)methyl)amino)-2-oxoethanaminium chloride]	0%	0.21%	0.21%	0.41%	0.97%	0.64%	0%	95.4 ± 7.4 % of Control	94.3 ± 9.7 % of Control	95.3 ± 8.3 % of Control	98.1 ± 4.6 % of Control	99.3 ± 3.3 % of Control	100.6 ± 4.9 % of Control	97.2 ± 3.3 % of Control	97.5 ± 2.5 % of Control	96.9 ± 1.7 % of Control	115.64 ± 11.61 %	106.86 ± 9.49%	66.18 ± 21.32 %	120.06 ± 25.63 %	hemolysis at 45 min, 50 mg/L ([1]; c 50 mg/L as printed in the third concentration block of amides 7 and 8, 45 min): 0%; hemolysis at 120 min, 50 mg/L ([1]; c 50 mg/L as printed in the third concentration block of amides 7 and 8, 120 min): 0.23%; hemolysis at 240 min, 50 mg/L ([1]; c 50 mg/L as printed in the third concentration block of amides 7 and 8, 240 min): 0.38%; VmaxC (of Fibrin Polymerization) ([5]; 25 mg/L): 104.39 ± 8.60%; VmaxF (of Fibrin Clot Lysis) ([5]; 25 mg/L): 62.99 ± 16.99 %; Amax (maximum of fibrin clot absorbance at 360 nm) ([5]; 50 mg/L): 113.54 ± 13.76 %; VmaxC (of Fibrin Polymerization) ([5]; 50 mg/L): 111.45 ± 8.07 %; VmaxF (of Fibrin Clot Lysis) ([5]; 50 mg/L): 87.27 ± 8.04%; decrease of VmaxF [5]: 30–40%; Amax parameter, effect in words ([5]; full range of tested concentrations (10–50 µg/mL)): significantly higher
NCC(=O)NCC1CCC(C(=O)O)CC1 (stereo not drawn) (as salt: hydrochloride) [Amide 7, 2-((((1s,4s)-4-Carboxycyclohexyl)methyl)amino)-2-oxoethanaminium chloride]																					melting point: 221 to 224 °C
